Results: US20240415808A1, “Dosage Regimen for Fexuprazan Injection Composition” (Daewoong Pharmaceutical Co., Ltd., priority 2021, published 2024)
“And” between values parts separate entries of the source, which are not always exact repeats. Equal entries are not always repeated.

Legend:
[1] = tested on: acidity (pH) in the gastrointestinal tract; experiment: oral vs intravenous two-way crossover clinical trial, acidity (pH) in the gastrointestinal tract; assay type: in vivo, human; conditions: healthy adults
Source text: (§1) Therefore, in order to compare the safety/PK/PD of the compound of the present invention during single intravenous administration and during single oral administration and derive the bioavailability, the clinical trial was designed as a randomized, open-label, single-dose, two-period, two-way crossover trial in healthy adults. The selection/exclusion criteria were the same as in Experimental Example 4. A total of 8 subjects were enrolled, and four subjects each were randomly assigned to sequence group 1 or sequence group 2 in the order in which they passed the screening criteria. All test subjects completed safety, pharmacokinetic, and pharmacodynamic evaluations according to the planned clinical trial schedule.
(§2) A screening visit was performed 3 to 28 days before the start of the clinical trial, and hospital admission was performed 2 days before medication. The first phase medication was performed according to the order group randomly assigned on the morning of the day. A stabilizer (200 mg), a freeze-drying auxiliary agent (200 mg), and the previously prepared fexuprazan hydrochloride (40 mg based fexuprazan weight) were dissolved in water for injection (4 mL), an appropriate amount of acid was added thereto. A composition whose pH was adjusted to 4.0 was administered intravenously, or an excipient (100 mg), a disintegrant (5 mg), and the previously prepared fexuprazan hydrochloride (40 mg based on fexuprazan weight) were mixed and compressed to prepare a tablet, which were administered orally. The hospital discharge was performed on the third day of medication. The second phase medication was performed on the morning of the 8th after hospital admission on the 6th day after the first phase medication. Hospital discharge was performed on the 10th day of medication. Subsequently, a close-out visit was performed between 15 and 18 days after medication (FIG. 6).
(§3) Testing of the acidity (pH) in the gastrointestinal tract and gastric secretion promoting hormone gastrin were performed from 24 hours before medication to 24 hours after medication. Blood collection for pharmacokinetics and urine collection for pharmacokinetics were performed for 48 hours from the time of medication.

[2] = tested on: acidity in the gastrointestinal tract; experiment: injection maintenance therapy test, acidity in the gastrointestinal tract; assay type: in vivo, human; conditions: healthy adults; for Fraction time pH ≥ 6 over 24 hours post-dose (duration %): 40 mg IV over 30 minutes then 4 mg/hr for 71.5 hours; for Fraction time pH ≥ 4 over 24 hours post-dose (duration %) / Mean pH / Median pH: 40 mg IV then 4 mg/hr for 71.5 hours
Experimental: In order to confirm changes in PD values according to fexuprazan injection maintenance therapy, the test was conducted on eight healthy adults between the ages of 19 and 50. To the test subjects, a total of 100 ml of a solution obtained by mixing 40 mg of a freeze-dried preparation (40 mg/vial) prepared in the same manner as that used in Experimental Example 6, and physiological saline was administered intravenously for 30 minutes. Subsequently, on the first day, a total of 1 L of a solution obtained by mixing 94 mg of freeze-dried formulation (40 mg/vial) and physiological saline was administered intravenously as a maintenance dose for 23.5 hours. On the second and third days, a total of 1 L of a solution obtained by mixing 96 mg of freeze-dried formulation (40 mg/vial) and physiological saline was administered intravenously for 24 hours. That is, as a maintenance dose, a total of 3 L of a solution of 286 mg of lyophilized formulation (40 mg/vial) mixed with physiological saline was administered intravenously for 71.5 hours at a rate of 4 mg/hr. The acidity in the gastrointestinal tract was tested on the first and third days, respectively, and the results are shown in Table 14 and FIG. 15 below.

[3] = 4-week repeated intravenous toxicity test, beagle dog; assay type: in vivo
Experimental: The previously prepared fexuprazan hydrochloride was dissolved in a solution containing 30 wt. % of polyethylene glycol (Polyethylene Glycol 400) polymer in physiological saline, and the concentration was calculated based on fexuprazan weight so that it could be administered at a liquid volume of 5 mL/kg for rats and 2 mL/kg for beagle dogs to prepare each composition. Toxicity was evaluated by intravenously administering at doses of 0, 2.5, 5, and 10 mg/kg/day to rats and beagle dogs, respectively, once a day for 4 weeks.

[4] = oral vs intravenous two-way crossover clinical trial, pharmacokinetics / bioavailability; assay type: in vivo; conditions: human, blood, healthy adults; for Cmax: n 8
Source text: as §1, §2, §3

[5] = intravenous administration (40 mg)

Q: For CNCc1cn(S(=O)(=O)c2cccc(F)c2)c(-c2ccc(F)cc2F)c1OC [Fexuprazan, 1-(5-(2,4-difluorophenyl)-1-((3-fluorophenyl)sulfonyl)-4-methoxy-1H-pyrrol-3-yl)-N-methylmethanamine], which “Fraction time pH ≥ 4 (%)” value [1, 5] is on record?
A: 71.6% and 71.6 ± 13.5%

Q: And the “Fraction time pH ≥ 6 (%)” value [1, 5]?
A: 38.7 ± 10.9%

Q: And the “Mean pH” value [1, 5]?
A: 4.9 and 4.9 ± 0.5

Q: What about the “Median pH” value [1, 5] of the same compound?
A: 5.5 ± 0.7

Q: What about the “Fraction time pH ≥ 4 (%)” value ([1]; oral administration (40 mg)) of the same compound?
A: 47.5% and 47.5 ± 14.2%

Q: What about the “Fraction time pH ≥ 6 (%)” value ([1]; oral administration (40 mg)) of the same compound?
A: 20.3 ± 12.8%

Q: What about the “Mean pH” value ([1]; oral administration (40 mg)) of the same compound?
A: 3.9 and 3.9 ± 0.7

Q: And the “Median pH” value ([1]; oral administration (40 mg))?
A: 3.9 ± 1.2

Q: What about the “Fraction time pH ≥ 6 over 24 hours post-dose (duration %)” value ([2]; Day 1) of the same compound?
A: 65.40 ± 18.67%

Q: And the “Fraction time pH ≥ 6 over 24 hours post-dose (duration %)” value ([2]; Day 3)?
A: 76.33 (±15.98) % and 76.33 ± 15.98%

Q: What about the “Fraction time pH ≥ 4 over 24 hours post-dose (duration %)” value ([2]; Day 1) of the same compound?
A: 97.87 ± 1.43%

Q: What about the “Mean pH” value ([2]; Day 1) of the same compound?
A: 6.17 ± 0.36

Q: What about the “Median pH” value ([2]; Day 1) of the same compound?
A: 6.28 ± 0.32

Q: And the “Fraction time pH ≥ 4 over 24 hours post-dose (duration %)” value ([2]; Day 3)?
A: 99.85 ± 0.40%

Q: What about the “Mean pH” value ([2]; Day 3) of the same compound?
A: 6.39 ± 0.35

Q: And the “Median pH” value ([2]; Day 3)?
A: 6.44 ± 0.28

Q: And the “Result: harmless dose” value ([3]; Beagle dog, 4 weeks, intravenous, doses 0, 2.5, 5, 10)?
A: harmless dose 10 mg/kg

Q: And the “toxic symptoms due to the test substance” value ([3]; beagle dogs, 2.5, 5, 10 mg/kg/day intravenous, 4 weeks)?
A: no toxic symptoms due to the test substance were observed in all administration groups

Q: What about the harmless dose ([3]; beagle dogs, intravenous once a day for 4 weeks) of the same compound?
A: 10 mg/kg/day

Q: What about the AUC(0-inf) [4, 5] of the same compound?
A: 1150 ± 279 ng·h/mL

Q: What about the AUC(0-t) [4, 5] of the same compound?
A: 1110 ng·h/mL

Q: What about the Tmax [4, 5] of the same compound?
A: 0.25 h

Q: What about the half-life [4, 5] of the same compound?
A: 9.53 ± 2.42 h

Q: What about the Cmax [4, 5] of the same compound?
A: 277 ng/mL

Q: What about the AUC(0-inf) ([4]; oral administration (40 mg)) of the same compound?
A: 556 ± 299 ng·h/mL

Q: What about the AUC(0-t) ([4]; oral administration (40 mg)) of the same compound?
A: 536 ng·h/mL

Q: And the Tmax ([4]; oral administration (40 mg))?
A: 2.09 h

Q: And the half-life ([4]; oral administration (40 mg))?
A: 9.38 ± 1.6 h

Q: What about the Cmax ([4]; oral administration (40 mg) tablet) of the same compound?
A: 49.9 ng/mL
